Results from ChEMBL document CHEMBL1201862, “PubChem BioAssay data set” (2004).
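A five-concentration, 48-hour dose response in 96-well plates underlies each endpoint, interpolated linearly between surrounding concentrations. GI50 is the concentration that inhibits growth by half.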 Active and inactive are the calls of the source. Cut-off read from the data, not from the text of the source: active = GI50 up to about 1.1 µM and inactive = higher.

How the values were obtained:
Experiment in all cases: DTP human tumour cell line panel, 48 h
T47D = test system: T47D
A498 = test system: A498
CCRF-CEM = test system: CCRF-CEM
NCI-H23 = test system: NCI-H23
OVCAR-5 = test system: OVCAR-5
HCT-116 = test system: HCT-116
HOP-62 = test system: HOP-62
MOLT-4 = test system: MOLT-4
MCF7 = test system: MCF7
MDA-MB-435 = test system: MDA-MB-435
U-251 = test system: U-251
SR = test system: SR
UACC-62 = test system: UACC-62
SF-539 = test system: SF-539
KM12 = test system: KM12
OVCAR-8 = test system: OVCAR-8
NCI/ADR-RES = test system: NCI/ADR-RES
SK-OV-3 = test system: SK-OV-3
NCI-H522 = test system: NCI-H522
COLO 205 = test system: COLO 205
RPMI-8226 = test system: RPMI-8226
PC-3 = test system: PC-3
A549 = test system: A549
MDA-N = test system: MDA-N
OVCAR-4 = test system: OVCAR-4
DU-145 = test system: DU-145
LOX IMVI = test system: LOX IMVI
Hs-578T = test system: Hs-578T
Malme-3M = test system: Malme-3M
NCI-H460 = test system: NCI-H460
HCC 2998 = test system: HCC 2998
IGROV-1 = test system: IGROV-1
SN12C = test system: SN12C
BT-549 = test system: BT-549
HCT-15 = test system: HCT-15
CAKI-1 = test system: CAKI-1
HT-29 = test system: HT-29
SW-620 = test system: SW-620
UACC-257 = test system: UACC-257
SK-MEL-5 = test system: SK-MEL-5
HOP-92 = test system: HOP-92
RXF 393 = test system: RXF 393
K562 = test system: K562
EKVX = test system: EKVX
SF-268 = test system: SF-268
UO-31 = test system: UO-31
OVCAR-3 = test system: OVCAR-3
SNB-75 = test system: SNB-75
786-0 = test system: 786-0
SF-295 = test system: SF-295
HL-60 = test system: HL-60
ACHN = test system: ACHN
SK-MEL-2 = test system: SK-MEL-2
M14 = test system: M14
TK-10 = test system: TK-10
MDA-MB-231 = test system: MDA-MB-231
SNB-19 = test system: SNB-19
SK-MEL-28 = test system: SK-MEL-28
NCI-H226 = test system: NCI-H226

C=CC(C)(C)n1cc(C2=C(O)C(=O)C(c3cn(C(C)(C)C=C)c4ccccc34)=C(O)C2=O)c2ccccc21
GI50 (T47D): 6710 nM (inactive) | GI50 (A498): 5970 nM (inactive) | GI50 (CCRF-CEM): 5250 nM (inactive) | GI50 (NCI-H23): 2320 nM (inactive) | GI50 (OVCAR-5): 1890 nM (inactive) | GI50 (HCT-116): 3270 nM (inactive) | GI50 (HOP-62): 2320 nM (inactive) | GI50 (MOLT-4): 4070 nM (inactive) | GI50 (MCF7): 3480 nM (inactive) | GI50 (MDA-MB-435): 3790 nM (inactive) | GI50 (U-251): 2350 nM (inactive) | GI50 (SR): 3570 nM (inactive) | GI50 (UACC-62): 1980 nM (inactive) | GI50 (SF-539): 1590 nM (inactive) | GI50 (KM12): 3370 nM (inactive) | GI50 (OVCAR-8): 2110 nM (inactive) | GI50 (NCI/ADR-RES): 2200 nM (inactive) | GI50 (SK-OV-3): 2670 nM (inactive) | GI50 (NCI-H522): 2530 nM (inactive) | GI50 (COLO 205): 9140 nM (inactive) | GI50 (RPMI-8226): 4440 nM (inactive) | GI50 (PC-3): 2270 nM (inactive) | GI50 (A549): 3680 nM (inactive) | GI50 (MDA-N): 1950 nM (inactive) | GI50 (OVCAR-4): 1760 nM (inactive) | GI50 (DU-145): 4900 nM (inactive) | GI50 (LOX IMVI): 3130 nM (inactive) | GI50 (Hs-578T): 2070 nM (inactive) | GI50 (Malme-3M): 2540 nM (inactive) | GI50 (NCI-H460): 2840 nM (inactive) | GI50 (HCC 2998): 2610 nM (inactive) | GI50 (IGROV-1): 2700 nM (inactive) | GI50 (SN12C): 2500 nM (inactive) | GI50 (BT-549): 1010 nM (active) | GI50 (HCT-15): 1750 nM | GI50 (CAKI-1): 2340 nM (inactive) | GI50 (HT-29): 3740 nM (inactive) | GI50 (SW-620): 10300 nM (inactive) | GI50 (UACC-257): 2900 nM (inactive) | GI50 (SK-MEL-5): 2080 nM (inactive) | GI50 (HOP-92): 3340 nM (inactive) | GI50 (RXF 393): 435 nM (active) | GI50 (K562): 5620 nM (inactive) | GI50 (EKVX): 2930 nM (inactive) | GI50 (SF-268): 2190 nM (inactive) | GI50 (UO-31): 1670 nM (inactive) | GI50 (OVCAR-3): 1960 nM (inactive) | GI50 (SNB-75): 2360 nM (inactive) | GI50 (786-0): 3050 nM (inactive) | GI50 (SF-295): 2850 nM (inactive) | GI50 (HL-60): 5090 nM (inactive) | GI50 (ACHN): 3690 nM (inactive) | GI50 (SK-MEL-2): 1730 nM (inactive) | GI50 (M14): 2710 nM (inactive) | GI50 (TK-10): 3180 nM (inactive) | GI50 (MDA-MB-231): 3710 nM (inactive) | GI50 (SNB-19): 2410 nM (inactive) | GI50 (SK-MEL-28): 7330 nM (inactive) | GI50 (NCI-H226): 2670 nM (inactive)

O=[N+]([O-])c1cccc2nc3ccccc3c(NCCc3cccc[n+]3[O-])c12
GI50 (T47D): < 37.8 nM (active) | GI50 (A498): 47.5 nM (active) | GI50 (CCRF-CEM): < 31.8 nM (active) | GI50 (NCI-H23): < 11.5 nM (active) | GI50 (OVCAR-5): < 19.4 nM (active) | GI50 (HCT-116): < 10 nM (active) | GI50 (HOP-62): < 17.7 nM (active) | GI50 (MOLT-4): < 14.4 nM (active) | GI50 (MCF7): < 11.6 nM (active) | GI50 (MDA-MB-435): < 11.6 nM (active) | GI50 (U-251): < 38 nM (active) | GI50 (SR): < 10 nM (active) | GI50 (UACC-62): 52 nM (active) | GI50 (SF-539): 40.7 nM (active) | GI50 (KM12): < 32.8 nM (active) | GI50 (OVCAR-8): < 17.6 nM (active) | GI50 (NCI/ADR-RES): 608 nM (active) | GI50 (SK-OV-3): 153 nM (active) | GI50 (NCI-H522): 18.7 nM (active) | GI50 (COLO 205): < 10 nM (active) | GI50 (RPMI-8226): 12.3 nM (active) | GI50 (PC-3): < 39.1 nM (active) | GI50 (A549): < 15.9 nM (active) | GI50 (MDA-N): 15.3 nM (active) | GI50 (OVCAR-4): 54.1 nM (active) | GI50 (DU-145): < 10 nM (active) | GI50 (LOX IMVI): 29.9 nM (active) | GI50 (Hs-578T): 78.2 nM (active) | GI50 (Malme-3M): < 14.4 nM (active) | GI50 (NCI-H460): < 14.1 nM (active) | GI50 (HCC 2998): < 10 nM (active) | GI50 (SN12C): < 19.9 nM (active) | GI50 (BT-549): < 16.5 nM (active) | GI50 (HCT-15): < 13.8 nM | GI50 (CAKI-1): < 40.2 nM (active) | GI50 (HT-29): 10.3 nM (active) | GI50 (SW-620): < 10 nM (active) | GI50 (UACC-257): < 23.1 nM (active) | GI50 (SK-MEL-5): < 10 nM (active) | GI50 (HOP-92): < 18.3 nM (active) | GI50 (RXF 393): 19.6 nM (active) | GI50 (K562): 16.8 nM (active) | GI50 (EKVX): < 21.2 nM (active) | GI50 (SF-268): < 47.6 nM (active) | GI50 (UO-31): < 19.3 nM (active) | GI50 (OVCAR-3): < 38.5 nM (active) | GI50 (SNB-75): < 43.8 nM (active) | GI50 (786-0): < 16.8 nM (active) | GI50 (SF-295): < 36.8 nM (active) | GI50 (HL-60): < 42.7 nM (active) | GI50 (ACHN): 10.3 nM (active) | GI50 (SK-MEL-2): 61.9 nM (active) | GI50 (M14): < 10.5 nM (active) | GI50 (TK-10): < 48.6 nM (active) | GI50 (MDA-MB-231): < 10 nM (active) | GI50 (SNB-19): 128 nM (active) | GI50 (SK-MEL-28): < 10 nM (active) | GI50 (NCI-H226): 73.8 nM (active)
